Where a chain is given by its changes, count along the chain named. Where two headings read alike, the source gives them in different places.
Columns and labels:
TbAQP2 = molecular target: T1, TbAQP2 (Trypanosoma brucei brucei, UniProt Q6ZXT3)
T1 sequence (Q6ZXT3 1-312): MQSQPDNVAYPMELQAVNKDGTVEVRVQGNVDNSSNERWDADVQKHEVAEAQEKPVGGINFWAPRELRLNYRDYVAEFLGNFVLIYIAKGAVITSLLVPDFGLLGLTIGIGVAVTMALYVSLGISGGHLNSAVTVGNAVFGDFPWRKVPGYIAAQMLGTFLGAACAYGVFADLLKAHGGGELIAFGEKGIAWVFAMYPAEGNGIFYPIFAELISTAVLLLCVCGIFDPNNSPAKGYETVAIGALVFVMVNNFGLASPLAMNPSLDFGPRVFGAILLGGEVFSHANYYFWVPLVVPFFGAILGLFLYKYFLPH

TbAQP2 Leu264Arg = molecular target: T2, TbAQP2 Leu264Arg (Trypanosoma brucei brucei, UniProt Q6ZXT3, L264R); type: cell-based
T2 sequence (Q6ZXT3 1-312 L264R): T1 sequence (Q6ZXT3 1-312) with L264R

TbAQP2 Asp265Ala = TbAQP2 Asp265Ala (Trypanosoma brucei brucei, UniProt Q6ZXT3, D265A); assay: cell-based; conditions: read-out: IC50, pentamidine inhibition of TbAQP2 Asp265Ala

`NCC(O)CO` (centres unmarked) [3-aminopropane-1,2-diol] was tested, and the “rate of passage through TbAQP2 relative to glycerol” value (TbAQP2; pH 9.2) was “two thirds the rate of glycerol”.
In the case of `N=CN` [formamidine], the “permeability of TbAQP2 for small cations” value (TbAQP2; not told) is reported as “impermeable”.
For `N=C(N)c1ccc(OCCCCCOc2ccc(C(=N)N)cc2)cc1` [pentamidine], the “inhibition of TbAQP2 Leu264Arg” value (TbAQP2 Leu264Arg) was “failed to inhibit”, the IC50 (TbAQP2 Asp265Ala; pH 2.5) was 5.8 µM and the IC50 (TbAQP2 Asp265Ala; pH 7.2) was 4.5 µM.
